In ChEMBL document CHEMBL1201862, “PubChem BioAssay data set” (2004):
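Tested at 5 concentrations; 48 h exposure; 96-well plates; endpoints linearly interpolated, else capped at highest concentration. GI50 is the concentration that inhibits growth by half.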 Calls of active or inactive are those of the source. Cut-off read from the data, not from the text of the source: active = GI50 up to about 1.1 µM and inactive = higher.

Key:
Test in all cases: growth of human tumour cells (NCI), 48 h
A549 = tested on: A549
COLO 205 = tested on: COLO 205
EKVX = tested on: EKVX
HCC 2998 = tested on: HCC 2998
HCT-116 = tested on: HCT-116
HCT-15 = tested on: HCT-15
HOP-92 = tested on: HOP-92
MDA-MB-231 = tested on: MDA-MB-231
MDA-MB-435 = tested on: MDA-MB-435
NCI-H23 = tested on: NCI-H23
OVCAR-4 = tested on: OVCAR-4
PC-3 = tested on: PC-3
RPMI-8226 = tested on: RPMI-8226
SF-295 = tested on: SF-295
SK-OV-3 = tested on: SK-OV-3
SNB-19 = tested on: SNB-19
UACC-257 = tested on: UACC-257
UACC-62 = tested on: UACC-62
TK-10 = tested on: TK-10
MDA-N = tested on: MDA-N

| SMILES | GI50 (A549) | GI50 (COLO 205) | GI50 (EKVX) | GI50 (HCC 2998) | GI50 (HCT-116) | GI50 (HCT-15) [µM] | GI50 (HOP-92) | GI50 (MDA-MB-231) | GI50 (MDA-MB-435) | GI50 (NCI-H23) | GI50 (OVCAR-4) | GI50 (PC-3) | GI50 (RPMI-8226) | GI50 (SF-295) | GI50 (SK-OV-3) | GI50 (SNB-19) | GI50 (UACC-257) | GI50 (UACC-62) | GI50 (TK-10) | GI50 (MDA-N) |
| --- | --- | --- | --- | --- | --- | --- | --- | --- | --- | --- | --- | --- | --- | --- | --- | --- | --- | --- | --- | --- |
| C[C@@H]1OC(=O)C[C@H]2CC(=O)N(CCC3CN(S(=O)(=O)C(F)(F)F)c4ccccc43)C[C@@H]21 (some centres not stated) | > 100 µM (inactive) | > 100 µM (inactive) | > 100 µM (inactive) | > 100 µM (inactive) | > 100 µM (inactive) | > 100 | > 100 µM (inactive) | > 100 µM (inactive) | > 100 µM (inactive) | > 100 µM (inactive) | > 100 µM (inactive) | > 100 µM (inactive) | > 100 µM (inactive) | > 100 µM (inactive) | > 100 µM (inactive) | > 100 µM (inactive) | > 100 µM (inactive) | > 100 µM (inactive) | – | – |
| CCOc1cc(/C=C/C=C/c2ccc(N(C)C)cc2)[s+]c2ccccc12 | 11.4 µM (inactive) | 34.9 µM (inactive) | 34.5 µM (inactive) | 59.6 µM (inactive) | 21.7 µM (inactive) | 13.8 | 23.5 µM (inactive) | – | – | 34.6 µM (inactive) | 16 µM (inactive) | – | 3.2 µM (inactive) | 33.8 µM (inactive) | 34 µM (inactive) | 31.3 µM (inactive) | 23.3 µM (inactive) | 14.4 µM (inactive) | 33.2 µM (inactive) | – |
| c1ccc2c(c1)NC(C1OC3CCCN3C1C1Nc3ccccc3S1)S2 (configuration not stated) | > 100 µM (inactive) | 83.6 µM (inactive) | > 100 µM (inactive) | > 100 µM (inactive) | 55.3 µM (inactive) | 48.9 | > 100 µM (inactive) | – | 75.2 µM (inactive) | 29 µM (inactive) | 63.4 µM (inactive) | 44.1 µM (inactive) | 23 µM (inactive) | 90.6 µM (inactive) | > 100 µM (inactive) | > 100 µM (inactive) | 48.3 µM (inactive) | 79.8 µM (inactive) | > 100 µM (inactive) | – |
| CC(C(=O)OCc1ccccc1)N(Cc1ccccc1)Cc1ccccc1 (configuration not stated) | > 100 µM (inactive) | > 100 µM (inactive) | > 100 µM (inactive) | > 100 µM (inactive) | > 100 µM (inactive) | > 100 | > 100 µM (inactive) | – | – | 45.2 µM (inactive) | > 100 µM (inactive) | – | 35.9 µM (inactive) | > 100 µM (inactive) | > 100 µM (inactive) | > 100 µM (inactive) | 33.7 µM (inactive) | > 100 µM (inactive) | > 100 µM (inactive) | – |
| CNS(=O)(=O)NN(C)S(=O)(=O)c1ccc(C)cc1 | > 100 µM (inactive) | > 100 µM (inactive) | > 100 µM (inactive) | > 100 µM (inactive) | > 100 µM (inactive) | – | > 100 µM (inactive) | – | – | > 100 µM (inactive) | > 100 µM (inactive) | – | > 100 µM (inactive) | > 100 µM (inactive) | > 100 µM (inactive) | > 100 µM (inactive) | > 100 µM (inactive) | > 100 µM (inactive) | > 100 µM (inactive) | – |
| CC(=O)N(CCN)CCN | > 10 µM (inactive) | > 10 µM (inactive) | > 100 µM (inactive) | > 10 µM (inactive) | > 10 µM (inactive) | > 100 | > 10 µM (inactive) | – | – | > 10 µM (inactive) | > 10 µM (inactive) | – | > 10 µM (inactive) | > 10 µM (inactive) | > 100 µM (inactive) | > 10 µM (inactive) | > 10 µM (inactive) | > 100 µM (inactive) | > 10 µM (inactive) | – |
| COC(=O)C1=C(O)C(C(=O)OC)[C@@]2(O)[C@@H](C(=O)OC)[C@H](C)[C@@H](C)[C@@H]1[C@@H]2C(=O)OC (some centres not stated) | – | – | 52.8 µM (inactive) | 37.8 µM (inactive) | 66.1 µM (inactive) | 41.5 | – | > 100 µM (inactive) | 17.9 µM (inactive) | 75.2 µM (inactive) | – | – | 51.1 µM (inactive) | – | 49.4 µM (inactive) | > 100 µM (inactive) | 46.6 µM (inactive) | 55.5 µM (inactive) | > 100 µM (inactive) | 22 µM (inactive) |
| C/C(CCN(C)C)=N\OC(=O)c1ccccc1 | > 100 µM (inactive) | > 100 µM (inactive) | > 100 µM (inactive) | > 100 µM (inactive) | > 100 µM (inactive) | – | > 100 µM (inactive) | – | – | > 100 µM (inactive) | > 100 µM (inactive) | – | > 100 µM (inactive) | 63.7 µM (inactive) | > 100 µM (inactive) | > 100 µM (inactive) | > 100 µM (inactive) | > 100 µM (inactive) | > 100 µM (inactive) | – |
| C=CC[C@@]1(C(=O)OC)[C@H](Sc2ccccc2)C1(C)C | 32.5 µM (inactive) | 33.3 µM (inactive) | 33.3 µM (inactive) | 27 µM (inactive) | 23.6 µM (inactive) | 31 | 13.8 µM (inactive) | 69 µM (inactive) | 30.9 µM (inactive) | 23.2 µM (inactive) | 43.7 µM (inactive) | 47.3 µM (inactive) | 10.7 µM (inactive) | 36.1 µM (inactive) | > 100 µM (inactive) | > 100 µM (inactive) | 34 µM (inactive) | 45.5 µM (inactive) | > 100 µM (inactive) | – |
